Experimental data: BigSolDB 2.1

CC(=O)C1=C(O)C=C2Oc3c(C(C)=O)c(O)c(C)c(O)c3C2(C)C1=O (stereo in doubt)
solubility (mole fraction)
Conditions	in acetone	in ethanol	in ethyl acetate	in n-hexane	in water
278.15 K	0.000422	–	–	–	–
283.15 K	0.000454	–	–	–	–
288.15 K	0.000541	3.09e-05	0.00109	5.97e-05	2.81e-07
293.15 K	0.00061	4.23e-05	0.00125	6.97e-05	2.99e-07
298.15 K	0.000747	5.3e-05	0.00158	8.06e-05	3.31e-07
303.15 K	0.000879	6.8e-05	0.00189	9.43e-05	3.52e-07
308.15 K	0.000978	9.3e-05	0.00216	0.000106	3.75e-07
313.15 K	0.00121	0.000114	0.00275	0.000128	4.06e-07
318.15 K	0.00165	0.000121	0.00314	0.000149	4.46e-07
323.15 K	0.00197	0.000148	0.0038	0.000176	4.77e-07
328.15 K	–	0.000203	0.00444	0.000224	5.3e-07
333.15 K	–	0.000234	0.00518	0.000256	5.94e-07
338.15 K	–	0.000274	0.00689	0.00029	6.61e-07
